Reference: publication PMC7463651, “Phase I/Ib Study of Tenalisib (RP6530), a Dual PI3K δ/γ Inhibitor in Patients with Relapsed/Refractory T-Cell Lymphoma” (Cancers, 2020)
“And” between values parts separate entries of the source, which are not always exact repeats. Equal entries are not always repeated.

Tested on: patients with relapsed/refractory T Cell Lymphoma
Test: Safety assessment (adverse events per CTCAE v4.03, DLT/MTD) in phase I/Ib study
Assay type: in vivo, human
Experimental: Protocol defined hematological or non-hematological toxicity was considered dose-limiting if it occurred during the first cycle (within the first 28 d) and was considered related to Tenalisib. Hematological DLTs was defined as Grade 4 anemia; Grade 4 neutropenia for >7 days, or Grade ≥3 febrile neutropenia with fever >38.5 °C [101 °F]; Grade 4 thrombocytopenia for >7 days, or Grade ≥3 thrombocytopenia associated with Grade >2 bleeding.
Safety assessment included adverse event (AE) and serious adverse events (SAE) as per Common Terminology Criteria for Adverse Events (CTCAE), Version 4.03. During dose escalation, safety assessments were performed at weekly intervals during Cycle 1 and Cycle 2 and at two weekly intervals during Cycle 3 and 4. After completion of Cycle 4, safety assessments were performed on Day 1 of each subsequent cycle. In dose expansion phase, all safety assessments were performed on Day 1 of each cycle.

[1] = Relationship-all, Dose Expansion (N = 39)
[2] = Relationship-all, Total (N = 58)

With CC[C@H](Nc1ncnc2[nH]cnc12)c1oc2ccccc2c(=O)c1-c1cccc(F)c1 [Tenalisib] the “Pyrexia: patients with event” value [1] was 9 (23.1%) n (%), the “Rash: count of events” value [1] was 6 and the “Rash: patients with event” value [1] was 3 (7.7%) n (%). The “Tachycardia: count of events” value [1] was 3, the “Tachycardia: patients with event” value [1] was 3 (7.7%) n (%) and the “Vomiting: count of events” value [1] was 6. The “Vomiting: patients with event” value [1] was 5 (12.8%) n (%), the “Abdominal pain: count of events” value [2] was 9 and the “Abdominal pain: patients with event” value [2] was 8 (13.8%) n (%). For the same molecule, the “Alanine aminotransferase increased: count of events” value [2] was 33, the “Alanine aminotransferase increased: patients with event” value [2] was 20 (34.5%) n (%) and the “Anemia: count of events” value [2] was 16. The “Anemia: patients with event” value [2] was 9 (15.5%) n (%), the “Aspartate aminotransferase increased: count of events” value [2] was 37 and the “Aspartate aminotransferase increased: patients with event” value [2] was 21 (36.2%) n (%). The “Blood creatinine increased: count of events” value [2] was 7, the “Blood creatinine increased: patients with event” value [2] was 7 (12.1%) n (%) and the “Blood thyroid stimulating hormone increased: count of events” value [2] was 7. The “Blood thyroid stimulating hormone increased: patients with event” value [2] was 6 (10.3%) n (%), the “Constipation: count of events” value [2] was 10 and the “Constipation: patients with event” value [2] was 9 (15.5%) n (%). For the same molecule, the “Cough: count of events” value [2] was 16, the “Cough: patients with event” value [2] was 13 (22.4%) n (%) and the “Decreased appetite: count of events” value [2] was 13. The “Decreased appetite: patients with event” value [2] was 12 (20.7%) n (%), the “Dehydration: count of events” value [2] was 18 and the “Dehydration: patients with event” value [2] was 13 (22.4%) n (%). The “Diarrhea: count of events” value [2] was 25, the “Diarrhea: patients with event” value [2] was 19 (32.8%) n (%) and the “Dizziness: count of events” value [2] was 12. The “Dizziness: patients with event” value [2] was 10 (17.2%) n (%), the “Dry skin: count of events” value [2] was 8 and the “Dry skin: patients with event” value [2] was 7 (12.1%) n (%). The “Dyspnea: count of events” value [2] was 7, the “Dyspnea: patients with event” value [2] was 7 (12.1%) n (%) and the “Fatigue: count of events” value [2] was 27. The “Fatigue: patients with event” value [2] was 26 (45%) n (%) and 26 (44.8%) n (%), the “Gamma-glutamyl transferase increased: count of events” value [2] was 11 and the “Gamma-glutamyl transferase increased: patients with event” value [2] was 8 (13.8%) n (%). For the same molecule, the “Grade 3/4 Alanine aminotransferase increased: count of events” value [2] was 12, the “Grade 3/4 Alanine aminotransferase increased: patients with event” value [2] was 11 (19.0%) n (%) and the “Grade 3/4 Anemia: count of events” value [2] was 8. The “Grade 3/4 Anemia: patients with event” value [2] was 5 (8.6%) n (%), the “Grade 3/4 Aspartate aminotransferase increased: count of events” value [2] was 12 and the “Grade 3/4 Aspartate aminotransferase increased: patients with event” value [2] was 11 (19.0%) n (%). For the same molecule, the “Grade 3/4 Fatigue: count of events” value [2] was 4, the “Grade 3/4 Fatigue: patients with event” value [2] was 3 (5.2%) n (%) and the “Grade 3/4 Hyponatremia: count of events” value [2] was 4. The “Grade 3/4 Hyponatremia: patients with event” value [2] was 4 (6.9%) n (%), the “Grade 3/4 Neutropenia: count of events” value [2] was 4 and the “Grade 3/4 Neutropenia: patients with event” value [2] was 4 (6.9%) n (%). The “Grade 3/4 Thrombocytopenia: count of events” value [2] was 3, the “Grade 3/4 Thrombocytopenia: patients with event” value [2] was 3 (5.2%) n (%) and the “Headache: count of events” value [2] was 13. For the same molecule, the “Headache: patients with event” value [2] was 10 (17.2%) n (%), the “Hypokalemia: count of events” value [2] was 10 and the “Hypokalemia: patients with event” value [2] was 7 (12.1%) n (%). For the same molecule, the “Hyponatremia: count of events” value [2] was 9, the “Hyponatremia: patients with event” value [2] was 8 (13.8%) n (%) and the “Insomnia: count of events” value [2] was 7. For the same molecule, the “Insomnia: patients with event” value [2] was 6 (10.3%) n (%), the “Muscle spasms: count of events” value [2] was 10 and the “Muscle spasms: patients with event” value [2] was 9 (15.5%) n (%). For the same molecule, the “Nausea: count of events” value [2] was 16, the “Nausea: patients with event” value [2] was 15 (25.9%) n (%) and the “Pruritus: count of events” value [2] was 10. The “Pruritus: patients with event” value [2] was 9 (15.5%) n (%), the “Psychiatric disorders: count of events” value [2] was 18 and the “Psychiatric disorders: patients with event” value [2] was 11 (19.0%) n (%). The “Pyrexia: count of events” value [2] was 21, the “Pyrexia: patients with event” value [2] was 13 (22.4%) n (%) and the “Rash: count of events” value [2] was 10. For the same molecule, the “Rash: patients with event” value [2] was 6 (10.3%) n (%), the “Tachycardia: count of events” value [2] was 9 and the “Tachycardia: patients with event” value [2] was 8 (13.8%) n (%). The “Vomiting: count of events” value [2] was 11, the “Vomiting: patients with event” value [2] was 9 (15.5%) n (%) and the “Fatigue, most frequently reported TEAE” value (all patients) was 45%. For the same molecule, the “Transaminase elevations, most frequently reported related TEAE” value (all patients) was 33%, the “Late onset toxicities like colitis, pneumonitis, and opportunistic infections” value (also in patients treated for more than six months) was “not seen” and the “Alanine aminotransferase increased: count of events” value (human, in vivo) was 13. The “Alanine aminotransferase increased: patients with event” value (human, in vivo) was 6 (31.6%) n (%), the “Anemia, Grade 3 TEAE” value (human, in vivo) was 8.6% and the “Anemia: count of events” value (human, in vivo) was 1. For the same molecule, the “Anemia: patients with event” value (human, in vivo) was 1 (5.3%) n (%), the “Aspartate aminotransferase increased: count of events” value (human, in vivo) was 15 and the “Aspartate aminotransferase increased: patients with event” value (human, in vivo) was 6 (31.6%) n (%). The “Blood alkaline phosphatase increased: count of events” value (human, in vivo) was 1, the “Blood alkaline phosphatase increased: patients with event” value (human, in vivo) was 1 (5.3%) n (%) and the “Blood creatinine increased: patients with event” value (human, in vivo) was 1 (5.3%) n (%). For the same molecule, the “Blood thyroid stimulating hormone increased: count of events” value (human, in vivo) was 2, the “Blood thyroid stimulating hormone increased: patients with event” value (human, in vivo) was 2 (10.5%) n (%) and the “Constipation: count of events” value (human, in vivo) was 5. The “Constipation: patients with event” value (human, in vivo) was 4 (21.1%) n (%), the “Cough: count of events” value (human, in vivo) was 7 and the “Cough: patients with event” value (human, in vivo) was 6 (31.6%) n (%). The “Decreased appetite: count of events” value (human, in vivo) was 5, the “Decreased appetite: patients with event” value (human, in vivo) was 5 (26.3%) n (%) and the “Discontinuation due to adverse events” value (human, in vivo) was 9%. For the same molecule, the “Dry skin: count of events” value (human, in vivo) was 2, the “Dry skin: patients with event” value (human, in vivo) was 2 (10.5%) n (%) and the “Dyspepsia: count of events” value (human, in vivo) was 1. The “Dyspepsia: patients with event” value (human, in vivo) was 1 (5.3%) n (%), the “Dyspnea: count of events” value (human, in vivo) was 5 and the “Dyspnea: patients with event” value (human, in vivo) was 5 (26.3%) n (%). For the same molecule, the “Erythema: count of events” value (human, in vivo) was 1, the “Erythema: patients with event” value (human, in vivo) was 1 (5.3%) n (%) and the “Gamma-glutamyl transferase increased: count of events” value (human, in vivo) was 2. For the same molecule, the “Gamma-glutamyl transferase increased: patients with event” value (human, in vivo) was 2 (10.5%) n (%), the “Gamma-glutamyltransferase increased: count of events” value (human, in vivo) was 2 and the “Gamma-glutamyltransferase increased: patients with event” value (human, in vivo) was 2 (10.5%) n (%). The “Grade 3/4 Alanine aminotransferase increased: count of events” value (human, in vivo) was 7, the “Grade 3/4 Alanine aminotransferase increased: patients with event” value (human, in vivo) was 6 (15.4%) n (%) and the “Grade 3/4 Anemia: count of events” value (human, in vivo) was 6. For the same molecule, the “Grade 3/4 Anemia: patients with event” value (human, in vivo) was 3 (7.7%) n (%), the “Grade 3/4 Aspartate aminotransferase increased: count of events” value (human, in vivo) was 8 and the “Grade 3/4 Aspartate aminotransferase increased: patients with event” value (human, in vivo) was 7 (17.9%) n (%). The “Grade 3/4 Fatigue: count of events” value (human, in vivo) was 3, the “Grade 3/4 Fatigue: patients with event” value (human, in vivo) was 2 (5.1%) n (%) and the “Grade 3/4 Hyponatremia: count of events” value (human, in vivo) was 2. The “Grade 3/4 Hyponatremia: patients with event” value (human, in vivo) was 2 (5.1%) n (%), the “Grade 3/4 Neutropenia: count of events” value (human, in vivo) was 2 and the “Grade 3/4 Neutropenia: patients with event” value (human, in vivo) was 2 (5.1%) n (%). The “Grade 3/4 Thrombocytopenia: count of events” value (human, in vivo) was 2, the “Grade 3/4 Thrombocytopenia: patients with event” value (human, in vivo) was 2 (5.1%) n (%) and the “Headache: count of events” value (human, in vivo) was 4. The “Headache: patients with event” value (human, in vivo) was 3 (15.8%) n (%), the “Hypokalemia: count of events” value (human, in vivo) was 5 and the “Hypokalemia: patients with event” value (human, in vivo) was 4 (21.1%) n (%). The “Hyponatremia, Grade 3 TEAE” value (human, in vivo) was 6.9%, the “Hyponatremia: count of events” value (human, in vivo) was 4 and the “Hyponatremia: patients with event” value (human, in vivo) was 4 (21.1%) n (%). The “Insomnia: count of events” value (human, in vivo) was 3, the “Insomnia: patients with event” value (human, in vivo) was 3 (15.8%) n (%) and the “Neutropenia, Grade 3 TEAE” value (human, in vivo) was 6.9%. The “Neutropenia: count of events” value (human, in vivo) was 2, the “Number of related ≥Grade 3 AEs” value (human, in vivo) was 12 and the “Patients discontinued because of TEAEs” value (human, in vivo) was 14%. The “Patients with SAEs” value (human, in vivo) was 22 (38%) n (%), the “Patients with at least one TEAE” value (human, in vivo) was 57 (98%) n (%) and the “Patients with related AEs” value (human, in vivo) was 18 (64%) n (%). For the same molecule, the “Patients with related Grade 4 TEAEs” value (human, in vivo) was 5.2%, the “Patients with related ≥Grade 3 AEs” value (human, in vivo) was 9 (32%) n (%) and the “Pruritus: count of events” value (human, in vivo) was 5. The “Pruritus: patients with event” value (human, in vivo) was 4 (21.1%) n (%), the “Psychiatric disorders: count of events” value (human, in vivo) was 6 and the “Psychiatric disorders: patients with event” value (human, in vivo) was 4 (21.1%) n (%). The “Pyrexia: count of events” value (human, in vivo) was 4, the “Pyrexia: patients with event” value (human, in vivo) was 4 (21.1%) n (%) and the “Rash: count of events” value (human, in vivo) was 4. For the same molecule, the “Rash: patients with event” value (human, in vivo) was 3 (15.8%) n (%), the “SAEs gastrointestinal disorders, patients” value (human, in vivo) was 9% and the “SAEs related to infections, patients” value (human, in vivo) was 16%. For the same molecule, the “Tachycardia: count of events” value (human, in vivo) was 6, the “Tachycardia: patients with event” value (human, in vivo) was 5 (26.3%) n (%) and the “Transaminase elevation, related Grade ≥3 TEAE” value (human, in vivo) was 21%. For the same molecule, the “Deaths related to drug” value (in vivo) was “none of them were related to Tenalisib”, the “Dose-limiting toxicities (DLT)” value (in vivo) was “no DLTs” and the “Fatal outcome of related TEAEs” value (in vivo) was “None of the related TEAEs led to a fatal outcome”. For the same molecule, the “Grade 4 related TEAEs” value (in vivo) was “two events of ALT increase and one event of sepsis”, the “Number of SAEs assessed to be related” value (in vivo) was “six” and the “Number of SAEs reported” value (in vivo) was “Thirty-seven”. For the same molecule, the “Deaths reported in the study” value (seven deaths) was 12%.
